Test results: patent US10457644B2, “Pyrazol compounds as EAAT3 inhibitors” (Hoffmann-La Roche Inc., priority 2016, dated 2019)

What was measured:
human EAAT3 = target: T1, human EAAT3 (Homo sapiens, UniProt P43005); experiment: FLIPR Membrane Potential (FMP) assay; assay type: cell-based; conditions: HEK-293 cells stably expressing human EAAT3; L-glutamate as agonist at 80% of maximum response; antagonist applied 15 min before; Kb by Cheng-Prusoff from IC50
T1 construct: expressed in transfected cells
T1 sequence (P43005 1-524): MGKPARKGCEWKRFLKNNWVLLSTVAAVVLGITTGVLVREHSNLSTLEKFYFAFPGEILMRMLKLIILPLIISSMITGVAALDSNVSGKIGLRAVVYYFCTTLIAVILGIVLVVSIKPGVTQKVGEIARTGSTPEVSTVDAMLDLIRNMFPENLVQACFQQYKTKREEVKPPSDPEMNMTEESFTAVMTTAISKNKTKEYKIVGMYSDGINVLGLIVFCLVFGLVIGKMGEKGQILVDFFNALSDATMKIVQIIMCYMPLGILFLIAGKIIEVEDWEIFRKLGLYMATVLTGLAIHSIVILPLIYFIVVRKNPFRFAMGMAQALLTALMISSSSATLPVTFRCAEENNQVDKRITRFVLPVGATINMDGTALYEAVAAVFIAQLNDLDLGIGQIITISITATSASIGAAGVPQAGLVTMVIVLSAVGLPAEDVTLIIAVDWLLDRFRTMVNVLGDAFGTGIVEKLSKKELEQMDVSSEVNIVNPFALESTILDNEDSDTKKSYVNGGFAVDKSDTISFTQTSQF
Experimental: The FLIPR Membrane Potential (FMP) Assay
HEK-293 cells stably expressing human EAAT3 were seeded at 55 000 cells/well in growth medium (DMEM glutamate free (Invitrogen 11960-044), 1% Pen Strep (10 ml/l GIBCO BRL N^o 15140-023), 10% FCS non dialysed heat inactivated, 5 mg/l puromycin) in poly-D-lysine treated 96-well black microtiter plates with clear-bottom. After 24 h, the growth medium was removed and 100 μl/well of Krebs buffer (140 mM NaCl, 4.7 mM KCl, 2.5 mM CaCl2, 1.2 mM MgCl2, 11 mM HEPES, 10 mM D-glucose, pH=7.4) added. The cells were then loaded by adding 100 μl/well FMP assay dye (FLIPR Membrane Potential assay reagent, Molecular Devices). The 96-well plates were then incubated at 37° C. for 1 h. The depolarization of the cells will cause more dye to enter in the cells, where it will bind to intracellular proteins and lipids and cause an increase in the fluorescence signal. Antagonist potency at human EAAT3 was determined by using L-glutamate as agonist at a concentration which gives 80% of the maximum response. The antagonists were applied 15 min before the application of the agonist L-glutamate. The assays were performed at room temperature and measurements done by using a Fluorometric Imaging Plate Reader (FLIPR, Molecular Devices) and filter #2. Responses were measured as peak increase in fluorescence minus basal (i.e. fluorescence without addition of L-glutamate). Kb was determined using the Cheng-Prusoff equation Kb=IC50/[1+(A/EC50)], where IC50 is the concentration of the antagonist producing 50% inhibition, A is the concentration of the agonist against which the IC50 is being determined ([…]) and EC50 is the concentration of the agonist producing […].

Row | Structure (SMILES) | Kb (human EAAT3) [nM] | melting point [°C]
1 | CC(C)n1nccc1-c1cc(C(=O)NC(C)(C)C)cc(-c2ccc(F)c(Cl)c2)c1 [Example 12, N-tert-Butyl-3-(3-chloro-4-fluorophenyl)-5-(2-propan-2-yl-pyrazol-3-yl)-benzamide] | 610 | 81
2 | CC(C)(C)NC(=O)c1cc(-c2ccc(F)cc2)cc(-c2ccnn2C(C)(C)C)c1 [Example 2, N-tert-Butyl-3-(2-tert-butyl-pyrazol-3-yl)-5-(4-fluorophenyl)-benzamide] | 190 | 210
3 | CC(C)n1nccc1-c1cc(C(=O)NC(C)(C)C)cc(-c2ccc(Cl)c(F)c2)c1 [Example 16, N-tert-Butyl-3-(4-chloro-3-fluoro-phenyl)-5-(2-propan-2-yl-pyrazol-3-yl)-benzamide] | 310 | 87
4 | COc1ccc(-c2cc(C(=O)NC(C)(C)C)cc(-c3ccnn3C(C)C)c2)cc1 [Example 11, N-tert-Butyl-3-(4-methoxyphenyl)-5-(2-propan-2-yl-pyrazol-3-yl)-benzamide] | 290 | 79
5 | CC(C)n1nccc1-c1cc(C(=O)NC(C)(C)C#N)cc(-c2ccc(Cl)cc2)c1 [Example 21, 3-(4-Chlorophenyl)-N-(2-cyano-propan-2-yl)-5-(2-propan-2-yl-pyrazol-3-yl)-benzamide] | 320 | 96
6 | CCC(C)(C)NC(=O)c1cc(-c2ccc(Cl)cc2)cc(-c2ccnn2C(C)C)c1 [Example 19, 3-(4-Chlorophenyl)-N-(2-methyl-butan-2-yl)-5-(2-propan-2-yl-pyrazol-3-yl)-benzamide] | 890 | 72.5
7 | CCC(C)(C)NC(=O)c1cc(-c2ccc(Cl)cc2)cc(-c2ccnn2C(C)(C)C)c1 [Example 18, 3-(2-tert-Butyl-pyrazol-3-yl)-5-(4-chlorophenyl)-N-(2-methyl-butan-2-yl)-benzamide] | 3420 | 183.5
8 | CCn1nccc1-c1cc(C(=O)NC(C)(C)C)cc(-c2ccc(C(F)(F)F)cc2)c1 [Example 48, N-tert-Butyl-3-(2-ethyl-pyrazol-3-yl)-5-[4-(trifluoromethyl)-phenyl]-benzamide] | 290 | 70
9 | Cn1nccc1-c1cc(C(=O)NC(C)(C)C)cc(-c2ccc(Cl)cc2)c1 [Example 1, N-tert-Butyl-3-(4-chlorophenyl)-5-(2-methyl-pyrazol-3-yl)-benzamide] | 240 | 191
10 | CC(C)n1nccc1-c1cc(C(=O)NC(C)(C)C)cc(-c2ccccc2)c1 [Example 13, N-tert-Butyl-3-phenyl-5-(2-propan-2-yl-pyrazol-3-yl)-benzamide] | 300 | 168
11 | Cc1cc(-c2cc(C(=O)NC(C)(C)C)cc(-c3ccnn3C(C)C)c2)ccc1F [Example 15, N-tert-Butyl-3-(4-fluoro-3-methyl-phenyl)-5-(2-propan-2-yl-pyrazol-3-yl)-benzamide] | 1280 | 155
12 | CC(C)c1ccc(-c2cc(C(=O)NC(C)(C)C)cc(-c3ccnn3C(C)C)c2)cc1 [Example 10, N-tert-Butyl-3-(4-propan-2-yl-phenyl)-5-(2-propan-2-yl-pyrazol-3-yl)-benzamide] | 550 | 86
13 | CC(C)(C)NC(=O)c1cc(-c2ccc(C3CC3)cc2)cc(-c2ccnn2C(C)(C)C)c1 [Example 37, N-tert-Butyl-3-(2-tert-butyl-pyrazol-3-yl)-5-(4-cyclopropyl-phenyl)-benzamide] | 1130 | 198.5
14 | CCn1nccc1-c1cc(C(=O)NC(C)(C)C)cc(-c2ccc(F)cc2)c1 [Example 47, N-tert-Butyl-3-(2-ethyl-pyrazol-3-yl)-5-(4-fluorophenyl)-benzamide] | 110 | 162
15 | Cc1ccc(-c2cc(C(=O)NC(C)(C)C)cc(-c3ccnn3C(C)(C)C)c2)cc1F [Example 29, N-tert-Butyl-3-(2-tert-butyl-pyrazol-3-yl)-5-(3-fluoro-4-methyl-phenyl)-benzamide] | 390 | 202
16 | CC(C)(C)NC(=O)c1cc(-c2ccc(C(F)(F)F)cc2)cc(-c2ccnn2C2CC2)c1 [Example 43, N-tert-Butyl-3-(2-cyclopropyl-pyrazol-3-yl)-5-[4-(trifluoromethyl)-phenyl]-benzamide] | 320 | 72
17 | CC(C)n1nccc1-c1cc(C(=O)NC(C)(C)C)cc(-c2ccc(C(F)(F)F)cc2)c1 [Example 7, N-tert-Butyl-3-(2-propan-2-yl-pyrazol-3-yl)-5-[4-(trifluoromethyl)-phenyl]-benzamide] | 180 | 81
18 | CC(C)n1nccc1-c1cc(C(=O)NC(C)(C)CO)cc(-c2ccc(Cl)cc2)c1 [Example 39, 3-(4-Chlorophenyl)-N-(1-hydroxy-2-methyl-propan-2-yl)-5-(2-propan-2-yl-pyrazol-3-yl)-benzamide] | 270 | 80.5
19 | CC(C)n1nccc1-c1cc(C(=O)NC(C)(C)C(F)(F)F)cc(-c2ccc(Cl)cc2)c1 [Example 40, 3-(4-Chlorophenyl)-5-(2-propan-2-yl-pyrazol-3-yl)-N-(1,1,1-trifluoro-2-methyl-propan-2-yl)-benzamide] | 620 | 77.5
20 | CC(C)(C)NC(=O)c1cc(-c2ccc(C#N)cc2)cc(-c2ccnn2C(C)(C)C)c1 [Example 38, N-tert-Butyl-3-(2-tert-butyl-pyrazol-3-yl)-5-(4-cyano-phenyl)-benzamide] | 240 | 201.5
21 | CC(C)(C)NC(=O)c1cc(-c2ccc(F)c(F)c2)cc(-c2ccnn2C(C)(C)C)c1 [Example 36, N-tert-Butyl-3-(2-tert-butyl-pyrazol-3-yl)-5-(3,4-difluorophenyl)-benzamide] | 440 | 197.5
22 | Cc1cc(-c2cc(C(=O)NC(C)(C)C)cc(-c3ccnn3C(C)(C)C)c2)ccc1F [Example 27, N-tert-Butyl-3-(2-tert-butyl-pyrazol-3-yl)-5-(4-fluoro-3-methyl-phenyl)-benzamide] | 930 | 186
